In patent publication US11548913B2, “Therapeutic compositions including peptides and uses thereof” (Stealth BioTherapeutics Inc., priority 2015, dated 2023):
Entries after “also recorded” stand apart in the source; their conditions may differ.

Assays:
[1] = test system: Excised Sprague-Dawley rat hearts; experiment: Modified Langendorff rat heart model, ischemia/reperfusion with peptide in the reperfusion buffer (Example 1); settings: 1 μM peptide in Krebs buffer during 2 hours reperfusion after 20 min global no-flow ischemia; compared to controls
Protocol: (§1) The Langendorff rodent heart model is widely employed in studies of myocardial function and responses to injury (e.g., ischemia). For whole-heart studies, male Sprague-Dawley rats (7-9 weeks old) were injected with pentobarbital (35 mg/kg, ip injection) and hearts were excised with midline thoracotomy. The aortas were secured around a cannula of a modified Langendorff apparatus and retrogradely perfused (perfusion pressure of 75 mm Hg) with a modified Krebs-Henseleit buffer containing (in mM): 118 NaCl, 24 NaHCO3, 4.75 KCl, 1.2 KH2PO4, 1.2 MgSO4, 2.0 CaCl2, and 10 glucose (gassed with 95/5% O2/CO2). Hearts were bathed in a buffer-filled perfusion chamber maintained at 37° C. for the duration of the experiments. Following the initiation of perfusion, hearts were instrumented for the simultaneous observation of mechanical and electrical function. A buffer-filled latex balloon (size 5, Harvard Apparatus, Holliston, Mass., USA), calibrated at the beginning of each day using a digital manometer, was inserted into the left ventricle (via the mitral valve) for the measurement of left ventricular developed pressure (LVDP), with balloon volume adjusted to establish a diastolic pressure of 5-8 mm Hg. Three electrodes were placed into the buffer filled perfusion chamber for the measurement of the volume-conducted electrocardiogram (ECG). Coronary flow rates were monitored constantly with a flow probe (Transconic Systems, Ithaca, N.Y., USA) connected in series with the perfusion line, and normalized to heart wet weight (in grams) at the end of each experiment. All physiological parameters were continuously monitored and stored on a personal computer using commercially available software (Chart, AD Instruments, Colorado Springs, Colo., USA). Heart rate was calculated using the LVDP trace, and maximal rates of contraction(+dP/dt) and relaxation (−dP/dt) were calculated using the derivative of the LVDP trace.
Following a 10 minute baseline period, ischemia/reperfusion was initiated. Hearts were exposed to global no-flow ischemia by stopping perfusion for 20 min. At the end of the index ischemia, static buffer from the perfusion lines was washed out (via an accessory port proximal to the aortic cannula), and reperfusion ensued for 2 hours either with Krebs buffer alone (control) or Krebs buffer containing an experimental peptide at a concentration of 1 μM. Peptides tested included D-Arg-D-Dmt-D-Lys-L-Phe-NH2 (SBT-46), D-Arg-L-DMT-L-Ala-L-Phe-NH2 (SBT-68), (Ac)-D-Arg-L-DMT-L-Lys-L-Phe-NH2 (SBT-85), D-Arg-L-Dmt-L-His-L-Phe-NH2(SBT-100), D-Arg-L-DMT-L-Orn-L-Phe-NH2 (SBT-102), D-Orn-L-DMT-L-Lys-L-Phe-NH2(SBT-131), D-(Amidine)Arg(propylamine)-L-DMT-L-Lys-L-Phe-NH2 (SBT-140), and D-Arg(butylamidine analog)-L-DMT-L-Lys-L-Phe-NH2(SBT-149). At the end of reperfusion, the left ventricle was dissected, sliced into 5 mm-thick slices, incubated in 1% triphenyltetrazolium chloride (TTC) for 10 min (37° C.) and digitally photographed for subsequent infarct size analysis. Infarct size was expressed as a percentage of the left ventricle (% area at risk (AAR))(calculated using ImageJ software, NIH, Bethesda, Md., USA).

excised rat hearts = experiment: Modified Langendorff rat heart model, peptide pre-treatment before ischemia/reperfusion (Example 2); settings: hearts bathed 2 hours in 1 μM peptide before 20 min ischemia and 2 hours reperfusion; vs SBT-46, SBT-102 and controls; anticipated
Protocol: as §1, with “are” for “were”, “USA), which is” for “USA),”, “is” for “was”
Prior to the initiation of ischemia/reperfusion, the excised rat hearts are bathed in buffer containing an experimental peptide at a concentration of 1 μM or buffer alone (control) for two hours. The experimental peptide is selected from D-Arg-D-Dmt-D-Lys-L-Phe-NH2 (SBT-46), D-Arg-L-DMT-L-Ala-L-Phe-NH2 (SBT-68), (Ac)-D-Arg-L-DMT-L-Lys-L-Phe-NH2 (SBT-85), D-Arg-L-Dmt-L-His-L-Phe-NH2(SBT-100), D-Arg-L-DMT-L-Orn-L-Phe-NH2 (SBT-102), D-Orn-L-DMT-L-Lys-L-Phe-NH2(SBT-131), D-(Amidine)Arg(propylamine)-L-DMT-L-Lys-L-Phe-NH2(SBT-140), and D-Arg(butylamidine analog)-L-DMT-L-Lys-L-Phe-NH2 (SBT-149). Following a 10 minute baseline period, ischemia/reperfusion is initiated. Hearts are exposed to global no-flow ischemia by stopping perfusion for 20 min. At the end of the index ischemia, static buffer from the perfusion lines is washed out (via an accessory port proximal to the aortic cannula), and reperfusion ensues for 2 hours with Krebs buffer. At the end of reperfusion, the left ventricle is dissected, sliced into 5 mm-thick slices, incubated in 1% triphenyltetrazolium chloride (TTC) for 10 min (37° C.) and digitally photographed for subsequent infarct size analysis. Infarct size is expressed as a percentage of the left ventricle (% area at risk (AAR))(calculated using ImageJ software, NIH, Bethesda, Md., USA).

**Q.** With Cc1cc(O)cc(C)c1C[C@H](NC(=O)[C@H](N)CCCCC(=N)N)C(=O)N[C@@H](CCCCN)C(=O)N[C@@H](Cc1ccccc1)C(N)=O [SBT-149, D-Arg(butylamidine analog)-L-DMT-L-Lys-L-Phe-NH2] as the molecule, how does the “attenuation of cardiac ischemia injury and ischemia-reperfusion injury” value [1] read?
**A.** Its value is “able to attenuate cardiac ischemia injury and ischemia-reperfusion injury; also recorded: attenuation of cardiac ischemia-reperfusion injury”.

**Q.** And the “infarct size expressed as a percentage of area at risk (AAR)” value [1]?
**A.** Its value is “reduced infarct size”.

**Q.** And the “left ventricular developed pressure (LVDP)” value [1]?
**A.** Its value is “increased LVDP”.

**Q.** And the “maximal rates of contraction (+dP/dt)” value [1]?
**A.** The value was “increased maximal rates of contraction”.

**Q.** What about the “maximal rates of relaxation (−dP/dt)” value [1] of the same molecule?
**A.** The value was “increased maximal rates of relaxation”.

**Q.** And the LVDP (excised rat hearts)?
**A.** The LVDP was “increased LVDP”.

**Q.** What about the infarct size (excised rat hearts) of the same molecule?
**A.** Its infarct size is “reduced infarct size”.

**Q.** What about the “maximal rates of contraction (+dP/dt)” value (excised rat hearts) of the same molecule?
**A.** Its value is “increased maximal rates of contraction”.

**Q.** What about the “maximal rates of relaxation (−dP/dt)” value (excised rat hearts) of the same molecule?
**A.** Its value is “increased maximal rates of relaxation”.
